Assay results: patent US20070167408A1, “NOVEL ALKYL PHOSPHOLIPID DERIVATIVES WITH REDUCED CYTOTOXICITY AND USES THEREOF” (ZENTARIS GmbH, priority 2005, published 2007)
Values after ≈ are worked out from the molar mass of the structure shown.

Legend:
[1] = tested on: Trypanosoma brucei rhodesiense (strain STIB900); test: In vitro drug activity assay, protozoon B; type: cell-based; conditions: bloodstream form trypomastigotes, 72 hours, Alamar Blue
Protocol: (§1) In vitro activity of selected compounds of the invention against different protozoa was assessed as follows.
Trypanosoma brucei rhodesiense STIB900 bloodstream form trypomastigotes were maintained in HMI-18 medium (Hirumi H, Hirumi K, J Parasitol. 1989, 75(6):985-989) with 15% heat-inactivated fetal calf serum at 37° C., 5% CO2, humidified atmosphere. Trypomastigotes were washed and resuspended in fresh medium at a concentration of 2×10^5 mL. Test compounds were given to the trypomastigotes and plates were incubated for 72 hours at 37° C., 5% CO2, humidified atmosphere. At 72 hours the plates were assessed microscopically before Alamar Blue was added (Raz et al., Acta Trop. 1997, 68: 139-147). Plates were read after 5 to 6 hours at EX/EM 530/585 nm with a filter cutoff at 550 nm. ED50 values were calculated with Msxlfit (IDBS).
(§2) The following protozoa were assessed: • A) Trypanosoma cruzi (Tulahuan-LACZ amstigotes in PEM, Lorente S O et al., Antimicrobial agents and chemotherapy 2004, 48(8): 2937-2950; Buckner et al., Infection and Immunity 1999, 67(1): 403-409; Buckner et al., Antimicrobial Agents and Chemotherapy 1996, 40(11): 2592-2597) • B) Trypanosoma brucei rhodesiense (strain STIB900, Lorente S O et al., Antimicrobial agents and chemotherapy 2004, 48(8): 2937-2950; Habtemariam S, BMC Pharmacology 2003, 3:6) • C) Plasmodium falciparum (strain K1, Korsinczky M et al., Antimicrobial agents and chemotherapy 2000, 44(8): 2100-2108; Thaitong S and Beale G H, Trans. R. Soc. Trop. Med. Hyg. 1981, 75: 271-273; Trager W and Jensen J B, Science 1976, 193: 673-675) • D) Plasmodium faiciparum (strain 3D7, Mu et al., PLoS Biology 2005, 3(10): e335)

[2] = tested on: Plasmodium falciparum (strain K1); test: In vitro drug activity assay, protozoon C; type: cell-based; conditions: strain K1, 3[H]-hypoxanthine method
Protocol: as §1
(§3) Plasmodium falciparum strain K1 and strain 3D7 parasites were cultured according to Trager W and Jensen J B (Science 1976, 193: 673-675). In vitro drug susceptibility assays with the test compounds were carried out according to Korsinczky M et al. (Antimicrobial agents and chemotherapy 2000, 44(8): 2100-2108) and Fivelman Q L et al. (Antimicrobial agents and chemotherapy 2004, 48(11): 4097-4102) using a ^3[H]-hypoxanthine radioisotope method. ED50 values were calculated with Msxlfit (IDBS).
as §2

[3] = tested on: Plasmodium faiciparum (strain 3D7); test: In vitro drug activity assay, protozoon D; type: cell-based, Plasmodium falciparum; conditions: strain 3D7, 3[H]-hypoxanthine method
Protocol: as §1, §3, §2

[4] = tested on: Trypanosoma cruzi (Tulahuan-LACZ amstigotes in PEM); test: In vitro drug activity assay, protozoon A; type: cell-based; conditions: amastigotes in murine peritoneal macrophages, 3 days
Protocol: as §1
Murine (CD1) peritoneal macrophages were harvested 24 hours after starch induction and dispensed into 96-well plates at a concentration of 4×10^5 mL. After 24 hours, the cells were infected with Trypanosoma cruzi Tulahuan LAC-Z amastigotes (grown and cultured according to Buckner et al., Infection and Immunity 1999, 67(1): 403-409). 24 hours later, the infected cells were exposed to the test compounds (compounds of the invention as well as known prior art compounds) for 3 days and 50 μL of 500 μM CPRG-1% Nonidet P-40 was added to each well. The plates were read after 2 to 5 hours at 570 nm (Buckner et al., Antimicrobial Agents and Chemotherapy 1996, 40(11): 2592-2597). ED50 values were calculated with Msxlfit (IDBS).
as §2

[5] = tested on: Aspergillus fumigatus ATCC 204305; test: Anti-fungal broth microdilution (MIC), fungus A; type: cell-based; conditions: Aspergillus fumigatus, ATCC204305; filamentous protocol, more than 50% growth inhibition, 48 to 72 h
Protocol: (§4) Anti-fungal activity of selected compounds of the invention was assessed by means of anti-fungal susceptibility tests as follows.
(§5) The antifungal activities of the compounds of the invention against different fungi were measured according to standard broth microdilution methods of the US National Committee for Clinical Laboratory standards (NCCLS) for yeasts (NCCLS document M27-A, 1997) and filamentous fungi (NCCLS document M38-A, 2002).
(§6) Stock solutions of compounds of the invention were freshly prepared on the days of experiments equal to 1.28 mg/10 ml media. Serial dilutions were performed to achieve the following testing concentrations: 64 μg/ml, 32 μg/ml, 16 μg/ml, 8 μg/ml, 4 μg/ml, 2 μg/ml, 1 μg/ml, 0.5 μg/ml, 0.25 μg/ml and 0.125 μg/ml.
(§7) An inoculum of 10^6 CFU/ml of the fungi strain was prepared in the appropriate medium and transferred to test tubes for incubation.
(§8) The method is used to determine the minimum inhibitory concentrations (MIC) of drugs on fungi strains. […] For the filamentous fungi protocol, MIC determination took place after 48 to 72 h of culture at 35° C. and was defined at that concentration which produced more than 50% visible growth inhibition.

[6] = tested on: Cryptococcus neoformans ATCC 90112; test: Anti-fungal broth microdilution (MIC), fungus H; type: cell-based; conditions: yeast protocol, more than 80% inhibition, 48 h
Protocol: as §4, §5, §6, §7, §8

[7] = tested on: Candida parapsilosis ATCC 22019; test: Anti-fungal broth microdilution (MIC), fungus G; type: cell-based; conditions: yeast protocol, more than 80% inhibition, 48 h
Protocol: as §4, §5, §6, §7, §8

[8] = tested on: Aspergillus fumigatus 040-200167; test: Anti-fungal broth microdilution (MIC), fungus C; type: cell-based; conditions: Aspergillus fumigatus, 040200167; filamentous protocol, more than 50% growth inhibition, 48 to 72 h
Protocol: as §4, §5, §6, §7, §8

[9] = tested on: Aspergillus fumigatus 322-384; test: Anti-fungal broth microdilution (MIC), fungus B; type: cell-based; conditions: Aspergillus fumigatus, 322384; filamentous protocol, more than 50% growth inhibition, 48 to 72 h
Protocol: as §4, §5, §6, §7, §8

[10] = tested on: Cryptococcus gattii ATCC 32608; test: Anti-fungal broth microdilution (MIC), fungus J; type: cell-based; conditions: yeast protocol, more than 80% inhibition, 48 h
Protocol: as §4, §5, §6, §7, §8

[11] = tested on: Cryptococcus neoformans H99; test: Anti-fungal broth microdilution (MIC), fungus I; type: cell-based; conditions: yeast protocol, more than 80% inhibition, 48 h
Protocol: as §4, §5, §6, §7, §8

[12] = tested on: Candida albicans ATCC 90028; test: Anti-fungal broth microdilution (MIC), fungus E; type: cell-based; conditions: yeast protocol, more than 80% inhibition, 48 h
Protocol: as §4, §5, §6, §7, §8

[13] = tested on: Candida albicans ATCC 10231; test: Anti-fungal broth microdilution (MIC), fungus D; type: cell-based; conditions: yeast protocol, more than 80% inhibition, 48 h
Protocol: as §4, §5, §6, §7, §8

Candida albicans TS3 = test: Anti-fungal broth microdilution (MIC), fungus F; type: cell-based; conditions: yeast protocol, more than 80% inhibition, 48 h
Protocol: as §4, §5, §6, §7, §8

[14] = tested on: epimastigotes of Trypanosoma cruzi strain Y; test: In vitro activity of miltefosine and benznidazole against epimastigotes; type: cell-based; conditions: 72 h
Protocol: In vitro activity of Miltefosine and Benznidazole in the course of a combination treatment against Trypanosoma cruzi strain Y was assessed compared to the respective single treatments with miltefosine or benznidazole alone.
Miltefosine and Benznidazol were tested in vitro in combination against epimastigote forms of Trypanosoma cruzi strain Y which were isolated from a chagasic patient in Sao Paulo, Brazil and obtained from Dr. Victor Nussenzweig (Silva, L H. and Nussenzweig, V.; Folia clin. biol., 20: 191-207, 1953). This T. cruzi Y strain can also be ordered at ATCC 50832, while the ATCC strain must be re-adapted by several passages through mice in order to regain the strain's original characteristics of differentiation and virulence.
Epimastigotes were axenially cultured in brain heart infusion medium (BHI, Becton, Dickinson, Cat. No. 221812) supplemented with 10 mg of hemin per liter and 5% heat inactivated fetal calf serum (FCS) at 28° C. with shaking (˜80 rpm) up to a maximum of 10-12 passages, before the cultures were aged to obtain metacyclics that were purified on a DE-52 column (Whatman DEAE cellulose ion exchange column, Waco, Cat. No. 17050-03 or 17050-04) and injected into mice. After 2-4 weeks parasites were recovered from blood and placed back into axenic culture.
Stock solutions of Miltefosine and Benznidazol in concentrations of 10 mg/ml and 20 mg/ml dissolved in methanol were used. Stock solutions were serially diluted with a factor of 2 in BHI-FCS medium. For Benznidazol the following testing concentrations were used: 80 μg/ml, 40 μg/ml, 20 μg/ml, 10 μg/ml, 5 μg/ml and 2.5 μg/ml. The testing concentrations for Miltefosine were 20 μg/ml, 10 μg/ml, 5 μg/ml, 2.5 μg/ml, 1.25 μg/ml and 0.625 μg/ml.
2×10^6 epimastigotes were incubated in BHI-FCS medium with Miltefosine and Benznidazol in a final volume of 200 μl. After 72 h incubation at 28° C., parasite growth was determined by direct counting the number of parasites with a Neubauer chamber. The 50% inhibitory concentrations were determined by linear regression analysis.

| SMILES | ED50 (μg/mL), protozoon B [1] | ED50 (μg/mL), protozoon C [2] | ED50 (μg/mL), protozoon D [3] | ED50 (μg/mL), protozoon A [4] | MIC [5] | MIC [6] | MIC [7] | MIC [8] | MIC [9] | MIC [10] | MIC [11] | MIC [12] | MIC [13] | MIC (Candida albicans TS3) | Epimastigotes [amount/mL] ([14]; benznidazole 5 ug/mL) | Epimastigotes [amount/mL] ([14]; benznidazole 10 ug/mL) | Epimastigotes [amount/mL] ([14]; benznidazole 40 ug/mL) |
| --- | --- | --- | --- | --- | --- | --- | --- | --- | --- | --- | --- | --- | --- | --- | --- | --- | --- |
| CCCCCCCCCCCCCCCCOP(=O)([O-])OC1CC[N+](C)(CCc2ccccc2)CC1 (stereo not shown) [Compound 4, Phosphoric acid hexadecyl ester 1-methyl-1-phenethyl-piperidin-4-yl ester] | 12.29 µg/mL (≈ 23.5 µM) | 5.44 µg/mL (≈ 10.4 µM) | 15.32 µg/mL (≈ 29.3 µM) | 1.93 µg/mL (≈ 3.69 µM) | – | – | – | – | – | – | – | – | – | – | – | – | – |
| CCCCCCCCCCCCCCCCCCOP(=O)([O-])OC1CC[N+](CC)(CC)CC1 [Compound 5, Phosphoric acid 1,1-diethyl-piperidin-4-yl ester octadecyl ester] | 14.20 µg/mL (≈ 29 µM) | 21.26 µg/mL (≈ 43.4 µM) | 16.31 µg/mL (≈ 33.3 µM) | 1.43 µg/mL (≈ 2.92 µM) | 6 µg/mL (≈ 12.3 µM) | 1.5 µg/mL (≈ 3.06 µM) | 3 µg/mL (≈ 6.13 µM) | 24 µg/mL (≈ 49 µM) | 8 µg/mL (≈ 16.3 µM) | 0.75 µg/mL (≈ 1.53 µM) | 2 µg/mL (≈ 4.08 µM) | 2 µg/mL (≈ 4.08 µM) | 2 µg/mL (≈ 4.08 µM) | 2 µg/mL (≈ 4.08 µM) | – | – | – |
| O=C(Cn1ccnc1[N+](=O)[O-])NCc1ccccc1 [benznidazole, N-Benzyl-2-nitroimidazol-1-yl-acetamide] | – | – | – | 0.22 µg/mL (≈ 0.845 µM) | – | – | – | – | – | – | – | – | – | – | 455.833 amount/mL | 358.333 amount/mL | 190.000 amount/mL |
